In the NIST ThermoML archive (doi:10.1016/j.jct.2016.06.011):
± gives the expanded uncertainty stated by the source.

Assay: wn = mass fraction of the nth substance listed
Details: 101.3 kPa, Liquid, Pycnometric method

mass density (283.15 K, w1 = 0.08506) [kg/m3] | mass density (293.15 K, w1 = 0.1354) [kg/m3] | mass density (303.15 K, w1 = 0.21) [kg/m3] | mass density (283.15 K, w1 = 0.3211) [kg/m3] | mass density (293.15 K, w1 = 0.4232) [kg/m3] | mass density (303.15 K, w1 = 0.5289) [kg/m3] | Structure (SMILES)
1034 ± 14 | 1051 ± 14 | 1061 ± 14 | – | – | – | O=C1OC(=O)c2ccccc21 [isobenzofuran-1,3-dione] + C1COCCO1
– | – | – | 1049 ± 14 | 1056 ± 14 | 1063 ± 14 | O=Cc1ccc2ccccc2c1 [β-naphthaldehyde] + C1COCCO1
